The source of these data is patent US8399106B2, “Composition and method for treating wood” (Kemira OyJ, priority 2007, dated 2013).

Series [1] relates to Aureobasidium pullulans and Sclerophoma pithyophila (pooled suspension). Conditions: literature reference, 1.0% of NHA; cited from earlier work.
For the next series, the system named is rot fungi. Kind of series: Rot resistance / wood protection class (EN 350-1), fungus not specified. In kind it is cell-based. Conditions: treated wood.
For series [2] the following is noted: wood treated only with a chelating agent; as described in WO 0123154; cited from earlier work.

Each structure is given as a SMILES string.

Description for rot fungi: Rot testing was carried out according to the EN 113 standard. 10 test samples impregnated with respective agents for each of the three rot fungi were used in the test. A sample made of surface wood of pine was placed as a control with the impregnated test samples to the same container for the rot test. Activity of each fungus was tested with eight test samples (so-called infection test). Said test samples for the fungus activity testing were placed in respective containers for the rot test without impregnated test samples.
In the method, an X value was calculated for each impregnation batch and for each fungus, said X value describing the ratio of the mass loss of the impregnated test samples to that of the unimpregnated control samples. X value was calculated by dividing the corrected mass loss of the impregnated test samples by that of the unimpregnated control samples. The calculation was based on mean values. Based on the result obtained, the rot resistance class was determined as follows for the fungus with the highest rot activity:

On to `O=C1c2cccc3cccc(c23)C(=O)N1O` [NHA, N,N-naphthaloylhydroxylamine], for which the “Microbial growth 0 to 5” value in series [1] is on record as 4 (high amounts of microbial growth (more than 40% of the surface of the test sample covered by microbial growth)).

Take `O=C[O-].O=C[O-].[Ca+2]` [calcium formate]: the “wood protection class (rot protection standard EN 350-1, classes 1-5)” value with rot fungi was 3 (Class 3=reasonably resistant 0.30<X≦0.60).

For the molecule `O=C(O)CN(CCN(CC(=O)O)CC(=O)O)CC(=O)O` [EDTA, ethylenediaminetetraacetic acid], the “amounts washed out of wood, in words” value in series [2] is recorded as “so high”.
